In BindingDB's records for doi:10.1021/cb400200h (University of Oxford, 2013):

Target: Peptidoglycan D,D-transpeptidase FtsI (Pseudomonas aeruginosa (strain PA7), UniProt A6VB91)
Experiment: IC50 Assay
Details: pH 7.2; 25 °C
Method: An appropriate amount of enzyme (4uM) was pre-incubated with the (5R)- or 5(S)-penicilloic acid in the assay buffer (50mM HEPES-NaOH buffer (pH 7.2) supplemented with 0.01% Triton-100) at room temperature for 10 min. Nitrocefin (100uM) was added to initiate the assay. The IC50 values were determined using the software package Graph Prism 5.01.

Sequence of Peptidoglycan D,D-transpeptidase FtsI (A6VB91 whole entry): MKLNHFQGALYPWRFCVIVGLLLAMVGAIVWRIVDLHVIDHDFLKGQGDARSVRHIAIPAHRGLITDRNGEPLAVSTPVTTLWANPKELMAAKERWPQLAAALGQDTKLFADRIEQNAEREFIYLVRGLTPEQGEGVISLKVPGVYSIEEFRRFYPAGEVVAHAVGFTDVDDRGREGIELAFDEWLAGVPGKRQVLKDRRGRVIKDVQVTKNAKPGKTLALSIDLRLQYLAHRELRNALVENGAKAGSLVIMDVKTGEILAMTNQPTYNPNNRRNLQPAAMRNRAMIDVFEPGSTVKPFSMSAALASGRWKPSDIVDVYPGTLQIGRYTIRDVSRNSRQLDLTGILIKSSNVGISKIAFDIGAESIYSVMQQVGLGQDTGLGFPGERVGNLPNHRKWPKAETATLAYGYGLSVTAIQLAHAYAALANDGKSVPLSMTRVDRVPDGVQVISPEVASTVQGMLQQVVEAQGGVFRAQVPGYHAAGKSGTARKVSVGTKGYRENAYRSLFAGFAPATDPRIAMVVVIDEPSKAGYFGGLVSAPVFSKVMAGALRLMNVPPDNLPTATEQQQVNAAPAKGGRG

| IC50 | Structure (SMILES) |
| --- | --- |
| 0.166 µM | CCN1CCN(C(=O)N[C@@H](C(=O)N[C@@H]2C(=O)N3[C@@H]2SC(C)(C)[C@@H]3C(=O)O)c2ccccc2)C(=O)C1=O |
| 196 µM | CCN1CCN(C(=O)N[C@@H](C(=O)N[C@H](C(=O)O)[C@@H]2N[C@@H](C(=O)O)C(C)(C)S2)C2C=CC=CC2)C(=O)C1=O (stereo partly drawn) [(5R)-PA] |
| 126 µM | CCN1CCN(C(=O)N[C@@H](C(=O)N[C@H](C(=O)O)[C@H]2N[C@@H](C(=O)O)C(C)(C)S2)C2C=CC=CC2)C(=O)C1=O (stereo partly drawn) [(5S)-PA] |
